Data published in ChEMBL document CHEMBL4483862, “Open-source discovery of chemical leads for next-generation chemoprotective antimalarials” (2018).

Test system: Plasmodium berghei
Test: Luciferase/luciferin-expressing antifolate-resistant parasites were used to infect a culture of HepG2 cells that were pre-incubated with compounds. Infected hepatocytes emit light due to the luciferase reaction. Assay results are presented as the percent inhibition of light emission compared to control. […]
Type: functional
Conditions: sporozoite; for IC90: read-out: LUCIFERASE INFECTION ASSAY - IC90

Compound	IC90	also measured
COc1ccc(CNc2ncnc3ccccc23)cc1	> 10 µM	IC50 (PBLUC_HILL_SLOPE 1.65, PBLUC_R_SQUARED 0.126, read-out: LUCIFERASE INFECTION ASSAY - IC50): 3.67 µM
Cc1ccc(-n2c(C)cc(C(=O)COc3c(CO)cc(F)cc3CO)c2C)cc1C	> 10 µM	IC50 (PBLUC_HILL_SLOPE 1.7, PBLUC_R_SQUARED 0.588, read-out: LUCIFERASE INFECTION ASSAY - IC50): 6.56 µM
Cc1ccc(S(=O)(=O)Nc2ccc(Nc3nccn4c(-c5ccccc5Oc5ccccc5)cnc34)cc2)cc1	5.41 µM	IC50 (PBLUC_HILL_SLOPE 1.64, PBLUC_R_SQUARED 0.733, read-out: LUCIFERASE INFECTION ASSAY - IC50): 1.42 µM
O=C1CCN(Cc2ccc(Cl)cc2)N1	> 15.7 µM	IC50 (PBLUC_HILL_SLOPE 1.7, PBLUC_R_SQUARED 0.276, read-out: LUCIFERASE INFECTION ASSAY - IC50): 14.1 µM
Oc1cc(C(F)(F)F)nc2ccc(F)cc12	> 14.3 µM	IC50 (PBLUC_HILL_SLOPE 1.66, PBLUC_R_SQUARED 0.446, read-out: LUCIFERASE INFECTION ASSAY - IC50): 6.54 µM
Cc1cc(C(=O)COc2cccnc2[N+](=O)[O-])c(C)n1-c1ccc2c(c1)OCO2	> 10 µM	IC50 (PBLUC_HILL_SLOPE 1.7, PBLUC_R_SQUARED 0.197, read-out: LUCIFERASE INFECTION ASSAY - IC50): 8.75 µM
O=C(Nc1ccccc1Cc1ccccc1)c1cc2c(nc3sccn32)s1	4.88 µM	IC50 (PBLUC_HILL_SLOPE 1.68, PBLUC_R_SQUARED 0.818, read-out: LUCIFERASE INFECTION ASSAY - IC50): 1.32 µM
COc1ccc(C(N)=O)c(OCCOc2ccc(C(C)C)c(C)c2)c1	> 10 µM	IC50 (PBLUC_HILL_SLOPE 1.7, PBLUC_R_SQUARED 0.184, read-out: LUCIFERASE INFECTION ASSAY - IC50): 4.61 µM
Cc1cc(N2CCN(CCO)CC2)n2ncc(-c3ccc(F)cc3)c2n1	7.96 µM	IC50 (PBLUC_HILL_SLOPE 1.69, PBLUC_R_SQUARED 0.874, read-out: LUCIFERASE INFECTION ASSAY - IC50): 2.17 µM
O=S(=O)(c1cc(C(F)(F)F)cc(C(F)(F)F)c1)N1CCc2c([nH]c3ccccc23)C1C(F)(F)F (stereo not drawn)	> 6.39 µM	IC50 (PBLUC_HILL_SLOPE 1.65, PBLUC_R_SQUARED 0.099, read-out: LUCIFERASE INFECTION ASSAY - IC50): 5.02 µM
Cc1c(C(=O)Nc2nc(CN3CC(C)CC(C)C3)cs2)[nH]c2c1C(=O)CC(C)(C)C2 (stereo not drawn)	9.99 µM	IC50 (PBLUC_HILL_SLOPE 1.7, PBLUC_R_SQUARED 0.746, read-out: LUCIFERASE INFECTION ASSAY - IC50): 2.74 µM
CC(CC(=O)Nc1ccc(Cl)cc1)NCC(C)(C)N1CCOCC1 (stereo not drawn)	> 10 µM	IC50 (PBLUC_HILL_SLOPE 1.7, PBLUC_R_SQUARED 0.0143, read-out: LUCIFERASE INFECTION ASSAY - IC50): 4.7 µM
O=C(O/N=C(\Nc1ccc(OC(F)(F)F)cc1)c1c(Cl)cccc1Cl)c1ccccc1C(F)(F)F	> 6.14 µM	IC50 (PBLUC_HILL_SLOPE 1.69, PBLUC_R_SQUARED 0.564, read-out: LUCIFERASE INFECTION ASSAY - IC50): > 6.14 µM
CC(NC(=S)N/N=C/c1cc(Cl)cc(Cl)c1O)c1ccccc1 (stereo not drawn)	8.46 µM	IC50 (PBLUC_HILL_SLOPE 1.69, PBLUC_R_SQUARED 0.56, read-out: LUCIFERASE INFECTION ASSAY - IC50): 2.31 µM
N#Cc1ccc(-c2cc(C3(CNc4cccc(OC(F)(F)F)c4)CC3)ccn2)cc1	> 10 µM	IC50 (PBLUC_HILL_SLOPE 1.65, PBLUC_R_SQUARED 0.178, read-out: LUCIFERASE INFECTION ASSAY - IC50): > 10 µM
CC(=O)Nc1ccc(OCc2ccccc2C(F)(F)F)cc1	5.57 µM	IC50 (PBLUC_HILL_SLOPE 1.68, PBLUC_R_SQUARED 0.57, read-out: LUCIFERASE INFECTION ASSAY - IC50): 1.51 µM
CCN(CC)CCNc1cc(-c2cccs2)nc2ccccc12	> 10.1 µM	IC50 (PBLUC_HILL_SLOPE 1.7, PBLUC_R_SQUARED 0.474, read-out: LUCIFERASE INFECTION ASSAY - IC50): 3.96 µM

Compound	IC90	also measured
CN(CC(=O)NC1CC1)C(=O)CNc1ccccc1Oc1ccccc1	4.68 µM	IC50 (PBLUC_HILL_SLOPE 1.7, PBLUC_R_SQUARED 0.39, read-out: LUCIFERASE INFECTION ASSAY - IC50): 1.29 µM
CC(C)N1CCC(NC(=O)c2ccc(COc3ccc4ccccc4c3)o2)CC1	9.06 µM	IC50 (PBLUC_HILL_SLOPE 1.64, PBLUC_R_SQUARED 0.625, read-out: LUCIFERASE INFECTION ASSAY - IC50): 2.37 µM
O=C(Nc1ncccc1O)c1ccc(-n2cnc3ccccc32)cc1	6.03 µM	IC50 (PBLUC_HILL_SLOPE 1.70, 2.04, PBLUC_R_SQUARED 0.693, 0.681, read-out: LUCIFERASE INFECTION ASSAY - IC50): 1.8 µM
CN(C)Cc1ccccc1CNC(=O)Nc1ccc(Cl)c(Cl)c1	> 2 µM	IC50 (PBLUC_HILL_SLOPE 1.7, PBLUC_R_SQUARED 0.0619, read-out: LUCIFERASE INFECTION ASSAY - IC50): 0.986 µM
Clc1ccc(-c2csc3ncnc(Sc4nnc(N5CCOCC5)n4C4CC4)c23)cc1	> 10 µM	IC50 (PBLUC_HILL_SLOPE 1.69, PBLUC_R_SQUARED 0.173, read-out: LUCIFERASE INFECTION ASSAY - IC50): 7.1 µM
Cc1ccccc1C(=O)OCC(=O)c1cc(C)n(Cc2ccco2)c1C	3.07 µM	IC50 (PBLUC_HILL_SLOPE 1.7, PBLUC_R_SQUARED 0.868, read-out: LUCIFERASE INFECTION ASSAY - IC50): 0.843 µM
CCOC(=O)C1=C(C)NC(C)=C(C(=O)OCC)C1c1ccc(Cl)cc1Cl	> 8.29 µM	IC50 (PBLUC_HILL_SLOPE 1.65, PBLUC_R_SQUARED 0.211, read-out: LUCIFERASE INFECTION ASSAY - IC50): > 8.29 µM
CN(c1ccccc1)S(=O)(=O)c1ccc(C(=O)N2CCN(Cc3ccc(Cl)s3)CC2)cc1	> 10 µM	IC50 (PBLUC_HILL_SLOPE 1.66, PBLUC_R_SQUARED 0.494, read-out: LUCIFERASE INFECTION ASSAY - IC50): 8.02 µM
COc1ccccc1/C=C(\C#N)c1ccc(C)cc1	> 13.2 µM	IC50 (PBLUC_HILL_SLOPE 1.71, PBLUC_R_SQUARED 0.0423, read-out: LUCIFERASE INFECTION ASSAY - IC50): 10.6 µM
C/C(=N\OCc1ccccc1)c1cc(-c2ccccc2)c(C(F)(F)F)s1	> 8.79 µM	IC50 (PBLUC_HILL_SLOPE 1.7, PBLUC_R_SQUARED 0.604, read-out: LUCIFERASE INFECTION ASSAY - IC50): 4.91 µM
CN(Cc1ccccc1Cl)C(=O)c1ccc(NC(=O)c2ccco2)cc1	> 10 µM	IC50 (PBLUC_HILL_SLOPE 1.69, PBLUC_R_SQUARED 0.585, read-out: LUCIFERASE INFECTION ASSAY - IC50): 7.96 µM
CCn1c(SCCOc2ccccc2Cl)nnc1-c1cc(-c2ccccc2)nc2ccccc12	> 10 µM	IC50 (PBLUC_HILL_SLOPE 1.65, PBLUC_R_SQUARED 0.274, read-out: LUCIFERASE INFECTION ASSAY - IC50): > 10 µM
O=C(Nc1ccnn1Cc1ccccc1)c1ccc(C(=O)c2ccccc2)cc1	> 10 µM	IC50 (PBLUC_HILL_SLOPE 1.71, PBLUC_R_SQUARED 0.158, read-out: LUCIFERASE INFECTION ASSAY - IC50): 5.74 µM
CCCC/C=C/c1cnc2ccc(NC(CC)CO)nn12 (stereo not drawn)	> 11.4 µM	IC50 (PBLUC_HILL_SLOPE 1.69, PBLUC_R_SQUARED 0.254, read-out: LUCIFERASE INFECTION ASSAY - IC50): 7.08 µM
CC(C)n1ncc2cc(NC(=O)c3cccc(S(=O)(=O)NCc4ccccc4)c3)cnc21	> 10 µM	IC50 (PBLUC_HILL_SLOPE 1.68, PBLUC_R_SQUARED 0.408, read-out: LUCIFERASE INFECTION ASSAY - IC50): 6.12 µM
CN(CC(=O)Nc1nnc(-c2ccccc2)o1)Cc1ccccc1C(F)(F)F	3.69 µM	IC50 (PBLUC_HILL_SLOPE 1.69E+03, PBLUC_R_SQUARED 0.413, read-out: LUCIFERASE INFECTION ASSAY - IC50): 3.69 µM
O=C(Nc1ccc2c(c1)OCO2)c1cnc(N2CCN(Cc3ccc(Cl)cc3)C2=O)o1	> 10 µM	IC50 (PBLUC_HILL_SLOPE 1.65, PBLUC_R_SQUARED 0.722, read-out: LUCIFERASE INFECTION ASSAY - IC50): 3.79 µM
